According to ChEMBL document CHEMBL5032519, “Divergent synthesis and biological evaluation of 2-(trifluoromethyl)pyridines as virulence-attenuating inverse agonists targeting PqsR” (Eur J Med Chem, 2021):
≈ marks a conversion by molar mass, not a printed value. Calls of active or inactive are those of the source. No cut-off for these calls is given here.

Assays:
[1] = biological target: T1, Transcriptional regulator MvfR (Pseudomonas aeruginosa PA14) (UniProt A0A072ZLE6); experiment: Inverse agonist activity at PqsR in Pseudomonas aeruginosa assessed as reduction in pyocyanin production at 10 uM relative to control; design: scale not given: the % may be the effect or the level left; conditions: filed as inverse agonist
T1 sequence (whole entry): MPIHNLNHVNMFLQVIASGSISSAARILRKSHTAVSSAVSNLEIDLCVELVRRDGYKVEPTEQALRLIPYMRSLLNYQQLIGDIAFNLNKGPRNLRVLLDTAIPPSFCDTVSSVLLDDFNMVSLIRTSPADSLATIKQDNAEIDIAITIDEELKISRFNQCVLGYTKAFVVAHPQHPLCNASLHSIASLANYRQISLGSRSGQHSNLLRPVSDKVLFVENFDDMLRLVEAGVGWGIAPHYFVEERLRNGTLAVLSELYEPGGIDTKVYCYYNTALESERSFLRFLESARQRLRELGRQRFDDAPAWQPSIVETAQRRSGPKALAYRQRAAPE

[2] = Inverse agonist activity at PqsR in Escherichia coli […] by cell-based reporter gene assay
Escherichia coli = experiment: Inverse agonist activity at PqsR in Escherichia coli […] by measuring remaining activity at 1 uM by cell-based reporter gene assay relative to control
[3] = Half life in human S9 fraction; format: ADME, subcellular
[4] = biological target: T2, Transcriptional regulator MvfR (Pseudomonas aeruginosa PA14, UniProt A0A072ZLE6); experiment: Inverse agonist activity at PqsR in Pseudomonas aeruginosa assessed as reduction in pyocyanin production
T2 sequence (A0A072ZLE6 whole entry): T1 sequence (whole entry)

[5] = biological target: T1, Transcriptional regulator MvfR (Pseudomonas aeruginosa PA14); experiment: Inverse agonist activity at PqsR in Pseudomonas aeruginosa assessed as reduction in pyocyanin production at 0.2 uM relative to control; design: scale not given: the % may be the effect or the level left
Pseudomonas aeruginosa [6] = experiment: Antibiofilm activity against Pseudomonas aeruginosa assessed as reduction in CFU at 0.5 ug/ml; format: functional, organism-based; conditions: dose 0.5 µg/ml
[7] = Cytotoxicity against human HepG2 cells; format: cell-based; conditions: read-out: LD50 (the source's name)
[8] = Kinetic solubility of compound; format: physicochemical; conditions: read-out: Kinetic_solubility
[9] = Cytotoxicity against HEK293 cells; format: cell-based; conditions: human, read-out: LD50 (the source's name)
Pseudomonas aeruginosa [10] = experiment: Antibiofilm activity against Pseudomonas aeruginosa assessed as reduction in CFU at 50 uM; format: functional, organism-based
Pseudomonas aeruginosa [11] = experiment: Antibiofilm activity against Pseudomonas aeruginosa assessed as reduction in CFU at 50 uM in presence of TOB; format: functional, organism-based

In the case of `FC(F)(F)c1cc(NC/C=C/c2ccc(Cl)cc2)ccn1`, the Activity [1] is reported as 93% and the IC50 [2] is reported as 479 nM.

For `COc1cccc(CCCNc2ccnc(C(F)(F)F)c2)c1`, the Activity (Escherichia coli) was 59%.

With `FC(F)(F)c1cc(NCc2cn(-c3ccc(Oc4ccccc4)cc3)nn2)ccn1` the half-life [3] was 169 min.

`COc1cccc(C#CCNc2ccnc(C(F)(F)F)c2)c1` showed an Activity (Escherichia coli) of 58%.

In the case of `Fc1ccc(C#CCNc2ccnc(C(F)(F)F)c2)c(F)c1`, the Activity (Escherichia coli) is reported as 70%.

Work on `FC(F)(F)c1cc(NC/C=C/c2ccc(Oc3ccccc3)cc2)ccn1` yielded an IC50 [2] of 464 nM and an IC50 [4] of 3830 nM.

For `COc1ccc(C#CCNc2ccnc(C(F)(F)F)c2)cc1C`, the IC50 [2] was 289 nM and the Activity [5] was 5%.

Compound `CC(C)Oc1ccc(C#CCNc2ccnc(C(F)(F)F)c2)cc1Cl` has an IC50 [2] of 129 nM and an IC50 [4] of 560 nM.

Compound `FC(F)(F)c1cc(NCC#Cc2ccc(Cl)nc2)ccn1` has an Activity (Escherichia coli; filed as inverse agonist) of 33%.

With `FC(F)(F)c1cc(NCC#Cc2ccc(Br)cc2)ccn1` the Activity (Escherichia coli) was 115%.

Compound `CC(C)Oc1ccc(C#CCNc2ccnc(C(F)(F)F)c2)cc1` has an IC50 [4] of 650 nM.

In the case of `FC(F)(F)c1cc(NCCCc2ccc(Cl)cc2)ccn1`, the IC50 [2] is reported as 149 nM and the IC50 [4] is reported as 1050 nM.

`Nc1cc(NCCCc2ccc(F)cc2)cc(C(F)(F)F)n1` showed a half-life [3] of 56 min, an IC50 [2] of 140 nM and an IC50 [4] of 6900 nM.

Work on `FC(F)(F)c1cc(NC/C=C/c2ccc(Cl)nc2)ccn1` yielded an Activity (Escherichia coli) of 81%.

For `NC[C@H]1O[C@H](O[C@H]2[C@H](O)[C@@H](O[C@H]3O[C@H](CO)[C@@H](O)[C@H](N)[C@H]3O)[C@H](N)C[C@@H]2N)[C@H](N)C[C@@H]1O`, the Activity (Pseudomonas aeruginosa [6]) was “inactive”.

With `FC(F)(F)c1cc(NCCCc2ccccc2)ccn1` the Activity (Escherichia coli) was 52%.

Compound `COc1ccc(C#CCNc2ccnc(C(F)(F)F)c2)cc1F` has an IC50 [4] of 3170 nM.

In the case of `COc1ccc(C#CCNc2ccnc(C(F)(F)F)c2)cc1`, the Activity (Escherichia coli; filed as inverse agonist) is reported as 8%.

For `FC(F)(F)c1cc(NCC#Cc2ccc(Oc3ccccc3)cc2)ccn1`, the half-life [3] was 53 min, the IC50 [2] was 20 nM and the CC50 [7] was greater than 25000 nM. For the same compound, the solubility kinetic [8] was 13.2 µM (≈ 4.86 µg/mL), the CC50 [9] was 10000 nM and the IC50 [4] was 490 nM.

With `CCOc1ccc(C#CCNc2ccnc(C(F)(F)F)c2)cc1Cl` the IC50 [2] was 150 nM and the IC50 [4] was 390 nM.

`FC(F)(F)c1cc(NC/C=C\c2ccc(Cl)nc2)ccn1` gave an Activity (Escherichia coli; filed as inverse agonist) of 45%.

In the case of `CCOc1ccc(C#CCNc2ccnc(C(F)(F)F)c2)cc1F`, the half-life [3] is reported as 13 min, the solubility kinetic [8] is reported as 60.4 µM (≈ 20.4 µg/mL) and the CC50 [9] is reported as 56900 nM. It also gave an IC50 [4] of 250 nM.

Compound `Fc1cccc(C#CCNc2ccnc(C(F)(F)F)c2)c1` has an IC50 [2] of 222 nM.

Compound `Fc1ccc(CCCNc2ccnc(C(F)(F)F)c2)cc1` has a half-life [3] of 32.7 min, an IC50 [2] of 251 nM and a solubility kinetic [8] of 93.9 µM (≈ 28 µg/mL). It also gave a CC50 [9] of 25000 nM and an IC50 [4] of 3650 nM.

In the case of `FC(F)(F)c1cc(NCC#Cc2ccc(Cl)cc2)ccn1`, the IC50 [2] is reported as 281 nM and the IC50 [4] is reported as 7970 nM.

With `FC(F)(F)c1cc(NCC#Cc2ccc(Cl)cn2)ccn1` the Activity (Escherichia coli) was 53%.

In the case of `Fc1ccc(C#CCNc2ccnc(C(F)(F)F)c2)cc1`, the half-life [3] is reported as 61.2 min, the IC50 [2] is reported as 141 nM and the CC50 [7] is reported as greater than 50000 nM. The solubility kinetic [8] was greater than 200 µM, the CC50 [9] was greater than 50000 nM and the IC50 [4] was 3470 nM.

Work on `CCOc1ccc(C#CCNc2ccnc(C(F)(F)F)c2)cc1` yielded an IC50 [2] of 170 nM and an IC50 [4] of 390 nM.

With `FC(F)(F)c1cc(NCCCc2ccc(Oc3ccccc3)cc2)ccn1` the Activity (Escherichia coli; filed as inverse agonist) was -41% and the Activity [5] was 0%.

In the case of `COc1ccc(C#CCNc2ccnc(C(F)(F)F)c2)cc1Cl`, the Activity (Escherichia coli; filed as inverse agonist) is reported as 29% and the Activity [5] is reported as 4%.

`Oc1ccc(C#CCNc2ccnc(C(F)(F)F)c2)cc1` gave an Activity (Escherichia coli) of 82%.

In the case of `CC(C)Oc1ccc(C#CCNc2ccnc(C(F)(F)F)c2)cc1F`, the half-life [3] is reported as 25.3 min, the IC50 [2] is reported as 80 nM and the Activity (Pseudomonas aeruginosa [10]) is reported as “Active”. It also gave a CC50 [7] of 69800 nM, a solubility kinetic [8] of 58.8 µM (≈ 20.7 µg/mL) and a CC50 [9] of 61900 nM. The Activity (Pseudomonas aeruginosa [11]) was “Active” and the IC50 [4] was 440 nM.

`FC(F)(F)c1cc(NCC#Cc2ccc(Cl)c(Cl)c2)ccn1` showed an Activity (Escherichia coli; filed as inverse agonist) of 35%.

Work on `FC(F)(F)c1cc(SCC#Cc2ccc(Cl)cc2)ccn1` yielded a half-life [3] of 43.9 min, a CC50 [7] greater than 100000 nM and a solubility kinetic [8] of 42.4 µM (≈ 13.9 µg/mL). It also gave a CC50 [9] greater than 100000 nM.
